# Results from patent US20260076974A1, “COMPOSITIONS FOR PREVENTING AND TREATING INFECTION COMPRISING AN ARTIFICIAL SWEETENER” (Brunel University London, priority 2022, published 2026).
# Like-named read-outs stand apart in the source and are kept apart here.
# Columns and labels:
# A. baumannii AB5075 [1] = tested on: A. baumannii AB5075; set-up: species or system Acinetobacter baumannii; details: ace-K dressing applied for 1 hour
# Protocol: In this model, porcine skin was either burnt or lacerated and the wound infected with A. baumannii AB5075 and left for 3.5 hours to allow a biofilm to form. The dressing was applied for 1 hour and viable cells were collected after treatment. […] Samples were tested in biological triplicate with technical quadruplets.
# (8% (w/w)), potassium tetraborate (3% (w/w)), and PVA (3% ((w/w)) were added into a beaker and mixed with deionized water. The mixture was placed in a water bath and heated at 80° C. for three hours with watch glass while being swirled with a stirring rod every 1 hour. Once hydrogels had been obtained, they were placed in a petri dish with custom-made moulds.
# P. aeruginosa PA14 [2] = assay: Growth inhibition assay in nutrient medium (OD600); type: cell-based, Pseudomonas aeruginosa
# A. baumannii AB5075 [3] = assay: Growth inhibition assay in LB medium (OD600); type: cell-based, Acinetobacter baumannii
# P. aeruginosa PA14 [4] = assay: Crystal violet biofilm formation assay / minimum biofilm inhibition concentration; type: cell-based, Pseudomonas aeruginosa
# Protocol: (§1) Biofilm formation is linked to 80% of hospital-associated infections and is a major factor in the routine failure of antibiotic therapy.
# (§2) All samples were exposed to the artificial sweeteners in LB medium for 19 hours before crystal violet biofilm assay was performed. […] The data present the mean of three biological replicates±SD. *p≤0.05, *p≤0.001 versus the bacterial growth in control samples.
# (§3) All samples were exposed to artificial sweeteners for 19 hours before crystal violet biofilm assay was performed.
# A. baumannii [5] = assay: as above; type: cell-based, Acinetobacter baumannii
# Protocol: as §1, §2, §3
# [6] = tested on: A. baumannii gene expression; details: |logFC|>1 and p<.05
# Protocol: Cells were spun down and washed in RNAlater to preserve mRNA. RNA was isolated using a Qiagen RNAeasy Kit with column DNAase digestion. RNA integrity was determined using a Bioanalyzer. Samples were further processed for RNA sequencing on an Illumina MiSeq with 12 million reads per sample. Quality control and adapter trimming was performed with bcl2fastq.
# A. baumannii [7] = tested on: A. baumannii
# Description: Motility is a central facet of bacterial virulence and facilitates bacterial dissemination to the blood stream or other sites within an infected host. […] To validate the gene expression data, we performed twitching assays at a range of different concentrations.
# A. baumannii AB5075 [8] = details: established 18 hour biofilm, 8.85% ace-K, 24 hours
# Protocol: (§4) Plates were incubated for 18 hours at 37° C. and 180 rpm to allow biofilms to form. Following incubation, growth medium was removed from the wells and biofilms were washed three times with 200 μL of sterile PBS to remove any unbound planktonic cells. […] Plates were incubated for a further 24 hours at 37° C. and 180 rpm. Following this treatment biofilms were stained with 0.1% crystal violet as detailed above. Reduction in biofilm was represented as a percentage reduction compared to the control.
# (§5) To assess the ability of artificial sweeteners to disperse biofilms, overnight cultures were diluted in 96-well plates to OD600 0.5-0.1 in growth medium. Plates were incubated for 18 h at 37° C. and 180 rpm to allow biofilms to form. Following incubation growth medium was removed and wells washed three times with 200 μl of sterile PBS to remove any unattached cells. Fresh growth medium supplemented with artificial sweetener or an appropriate vehicle control was added to the wells. Plates were incubated for a further 24 h at 37° C. and 180 rpm. Following this treatment biofilms were stained with 0.1% crystal violet as detailed above. Biofilm dispersal was represented as a percentage reduction compared with the control.
# P. aeruginosa PA14 [9] = details: established 18 hour biofilm, 8.85% ace-K, 24 hours
# Protocol: as §4, §5
# A. baumannii cells = details: live cell imaging over time
# Description: (§6) To visualise the localisation of these membrane bulges and to gain insight into the contents of the bulges, an E. coli MG1655 strain with labelled mCherry-Fis and CFP-FtsZ was used (FIG. 62CD). Fis is a small DNA-binding protein that binds to a large number of regions of the chromosome, allowing the visualisation of the […] in living cells. FtsZ is a component of the Z ring, showing future cell division sites.
# E. coli NCTC 13476 = details: live cell imaging over time
# Description: as §6
# [10] = tested on: P. aeruginosa colony biofilms
# [11] = tested on: A. baumannii colony biofilms
# Staphylococcus aureus = details: […] ace-K versus LB control
# [12] = tested on: Stenotrophomonas maltophilia
# Enterococcus faecalis = details: […] ace-K versus LB control
# A. baumannii AB5075 [13] = tested on: A. baumannii AB5075
# PpilA promoter = details: 0, […], 0.66% or […] ace-K, 2 h
# Protocol: The expression from the PpilA promoter was measured using a miniTn7T-based insertion bearing a PpilA::gfp transcriptional fusion (AB5075/miniTn7T-zeo-pilA::gfpmut3). An AB5075/miniTn7T-zeo-gfpmut3 strain, bearing the empty miniTn7T backbone, was used as a control. […] Cultures were incubated for 2 h at 37° C., 180 rpm. Then, samples were withdrawn from the cultures, washed with PBS and eventually resuspended in PBS. Two technical repeats of each sample were allocated in a 96-well plate and their OD600 and GFP fluorescence (485 nm excitation, 535 nm emission) were measured. The fluorescence readings were normalised by their respective OD600 and the baseline fluorescence obtained from the empty transposon control was subtracted from that obtained with the strain bearing the PpilA::gfpmut3 the promoter fusion measurements.
# A. baumannii AB5075 [14] = details: […] ace-K (sub-MIC), two hours, compared to untreated control
# Protocol: Cultures were incubated at 37° C. and 180 rpm shaking for two hours. Following incubation 10 μL of a 1 mg/mL DAPI solution and 10 μL of a 5 mg/mL solution of Nile Red were added to each flask before returning to the incubator for 30 mins. Once stained, cultures were centrifuged at 5000 rpm for five minutes and the supernatant discarded. Pellets were resuspended in 10 ml of sterile 4% formaldehyde in PBS and incubated in the dark for 30 mins to fix. Once fixed, samples were centrifuged at 5000 rpm and pellets were washed twice with 10 mL sterile PBS. After washing pellets were resuspended in 10 ml of sterile PBS and 10 μL of the cell suspension was spotted onto a glass slide and allowed to air dry in the dark. Three spots were prepared per flask.
# [15] = LB with sweetener plus Mg2+ and Ca2+
# [16] = 3% (w/v) sucralose, […] (w/v) ace-K, LB medium, 19 hours
# [17] = submerged in 8.85% (w/v) ace-K solution for 1 hour
# [18] = surgical gauze soaked in 8.85% ace-K, 1 hour, compared to water-soaked dressing
# [19] = LB with ace-K plus Mg2+ and Ca2+
# [20] = in the presence of divalent cations (CaCl2 2 mM and MgSO4 1 mM)
# Description for Klebsiella pneumoniae: N=3 biological triplicate, each with technical triplicates).
structure (smiles),measurement,setting,value
"CC1=CC(=O)[N-]S(=O)(=O)O1.[K+] [ace-K, potassium salt of 6-methyl-1,2,3-oxathiazine-4 (3H)-one 2,2-dioxide]",log reduction in viable cells versus the water control,A. baumannii AB5075 [1]; burn model,2.16 log
same,log reduction in viable cells versus the water control,A. baumannii AB5075 [1]; laceration model,0.5 log
same,concentration showing significant / effective growth inhibition,P. aeruginosa PA14 [2],≥ 0.89%
same,effect of Mg2+ and Ca2+ cation supplementation on the growth inhibitory effect,P. aeruginosa PA14 [2]; [15],at least partially reverse
same,bacterial growth in the presence of sweetener,"P. aeruginosa PA14 [2]; […] sweetener, 19 hours, 37° C.",inhibit the growth
same,concentration at which growth inhibition plateaus; no growth above,P. aeruginosa PA14 [2]; ace-K 0.09-7.08%,around 5%
same,concentration showing significant / effective growth inhibition,A. baumannii AB5075 [3],≥ 0.89%
same,effect of Mg2+ and Ca2+ cation supplementation on the growth inhibitory effect,A. baumannii AB5075 [3]; [15],at least partially reverse
same,bacterial growth in the presence of sweetener,"A. baumannii AB5075 [3]; […] sweetener, 19 hours, LB medium",inhibit the growth
same,concentration at which growth inhibition plateaus; no growth above,A. baumannii AB5075 [3]; ace-K 0.09-7.08%,around 5%
same,biofilm formation,P. aeruginosa PA14 [4]; [16],significantly inhibit biofilm formation
same,concentration resulting in almost complete abolition of biofilm formation,P. aeruginosa PA14 [4]; 19 hours exposure,1.77%
same,concentration with significant impact on / inhibition of biofilm formation,A. baumannii [5],0.09%
same,biofilm formation,A. baumannii [5]; [16],significantly inhibit biofilm formation
same,number of genes significantly differentially expressed,[6],464 genes
same,concentration with significant reduction in bacterial twitching motility,A. baumannii [7],≥ 0.33%
same,twitching motility over increasing concentrations,"A. baumannii [7]; AB5075, ace-K",dose-dependent decrease
same,twitching motility over increasing concentrations,"A. baumannii [7]; strains AB0057 and BAA 747, ace-K",dose-dependent decrease
same,reduction of total biofilm biomass compared to the control,A. baumannii AB5075 [8],48.8%
same,reduction of total biofilm biomass compared to the control,P. aeruginosa PA14 [9],69.7%
same,cell morphology upon ace-K exposure,A. baumannii cells,"stop dividing and lose structural integrity, swelling in size rapidly"
same,cell morphology upon ace-K exposure,E. coli NCTC 13476,"filamented, extending to many times their original size before eventually, forming characteristic membrane bulges and ultimately lysing"
same,number of viable bacteria within the biofilm after ace-K wash,[10]; [17],significant reduction
same,bacteria numbers after ace-K augmented dressing,[10]; [18],significant reductions
same,number of viable bacteria within the biofilm after ace-K wash,[11]; [17],significant reduction
same,bacteria numbers after ace-K augmented dressing,[11]; [18],significant reductions
same,effect of Mg2+ and Ca2+ cation supplementation on the growth inhibitory effect,E. coli; [19],at least partially reverse
same,growth in LB including ace-K,E. coli; […] ace-K versus LB control,significantly inhibits the growth
same,effect of Mg2+ and Ca2+ cation supplementation on the growth inhibitory effect,Klebsiella pneumoniae; [19],at least partially reverse
same,growth in LB including ace-K,Klebsiella pneumoniae; […] ace-K versus LB control,significantly inhibits the growth
same,growth in LB including ace-K,Staphylococcus aureus,"minor reduction in growth in the presence of ace-K, but this was not significant"
same,effect of Mg2+ and Ca2+ cation supplementation on the growth inhibitory effect,[12]; [19],at least partially reverse
same,growth in LB including ace-K,[12]; […] ace-K versus LB control,significantly inhibits the growth
same,growth in LB including ace-K,Enterococcus faecalis,significantly inhibits the growth
same,effect of Mg2+ and Ca2+ cation supplementation on the growth inhibitory effect,Enterobacter cloacae; [19],at least partially reverse
same,growth in LB including ace-K,Enterobacter cloacae; […] ace-K versus LB control,significantly inhibits the growth
same,cell viability,A. baumannii AB5075 [13]; in the presence of cations when supplementing with ace-K,not affected
same,concentration reaching transformation abolition,A. baumannii AB5075 [13]; [20],≥ 0.66%
same,concentration with significant drop in transformability,A. baumannii AB5075 [13]; [20],0.33%
same,concentration at which transformation is completely abolished,A. baumannii AB5075 [13]; without added cations,≥ 0.66%
same,pilA expression (GFP fluorescence normalised by OD600),PpilA promoter,clear dose dependent response
same,nuclear dye uptake,A. baumannii AB5075 [14],significant increases
